Measured values: US9597326B2 (priority 2010, dated 2017)

Legend:
human TLR7 = human TLR7 (Homo sapiens (Human), UniProt Q9NYK1); assay type: cell-based; conditions: HEK293 reporter; relative to resiquimod set to 100%
[1] = test system: cytokines (IFN-γ, IL-10, IL-12 p40, IL-1β, IL-5, IL-6, MCP-1, KC, TNF-α); assay type: in vivo, mice; conditions: IP; peak concentration over 24 h; FIG. 6

Chain of human TLR7 (Q9NYK1 27-1049 limits assumed): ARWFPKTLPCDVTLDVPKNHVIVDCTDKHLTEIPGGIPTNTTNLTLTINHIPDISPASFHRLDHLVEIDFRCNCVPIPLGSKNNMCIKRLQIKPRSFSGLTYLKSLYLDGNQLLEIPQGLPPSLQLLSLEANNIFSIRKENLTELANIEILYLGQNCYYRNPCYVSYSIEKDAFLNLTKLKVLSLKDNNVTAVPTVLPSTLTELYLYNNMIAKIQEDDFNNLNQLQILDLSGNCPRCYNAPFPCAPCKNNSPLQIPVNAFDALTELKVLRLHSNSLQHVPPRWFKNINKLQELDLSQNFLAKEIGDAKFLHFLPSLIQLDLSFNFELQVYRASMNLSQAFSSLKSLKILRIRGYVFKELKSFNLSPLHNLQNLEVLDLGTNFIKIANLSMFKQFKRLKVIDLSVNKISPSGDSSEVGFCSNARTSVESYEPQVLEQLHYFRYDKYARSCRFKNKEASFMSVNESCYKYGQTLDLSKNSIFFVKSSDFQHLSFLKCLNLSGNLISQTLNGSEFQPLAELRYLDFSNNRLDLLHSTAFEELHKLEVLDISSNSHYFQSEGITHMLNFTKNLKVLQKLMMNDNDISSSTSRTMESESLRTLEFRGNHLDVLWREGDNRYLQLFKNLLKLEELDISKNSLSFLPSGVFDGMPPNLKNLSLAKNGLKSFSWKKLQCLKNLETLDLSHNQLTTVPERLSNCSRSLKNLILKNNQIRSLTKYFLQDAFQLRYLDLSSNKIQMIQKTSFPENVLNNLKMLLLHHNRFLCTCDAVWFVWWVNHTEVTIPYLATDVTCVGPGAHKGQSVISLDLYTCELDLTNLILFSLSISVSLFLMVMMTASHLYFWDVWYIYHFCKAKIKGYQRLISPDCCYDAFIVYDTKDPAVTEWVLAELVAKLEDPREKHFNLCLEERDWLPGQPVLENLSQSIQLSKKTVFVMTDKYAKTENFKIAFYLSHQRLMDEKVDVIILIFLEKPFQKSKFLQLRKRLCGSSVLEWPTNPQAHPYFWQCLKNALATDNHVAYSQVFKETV

## COc1ccc(CCc2cnc3c(N)nc4cc(C(C)(P(=O)(O)O)P(=O)(O)O)ccc4c3c2)c(C)c1 [Compound 19]
Human TLR7
  EC50: 23800 nM

## CCOCc1nc2c(N)nc3ccccc3c2n1CC(C)(C)O [R-848, resiquimod, reference compound]
[1]
  cytokine induction of IL-5 compared to peanut oil-control: Neither administration of SMIP 28 nor R-848, compared to peanut oil-control, resulted in a cytokine induction of IL-5
  cytokines induced compared to peanut oil-control: cytokine induction of IFN-γ, IL-10, IL-12 p40, IL-6, MCP-1, mKC, and TNF-α

## COc1ccc(CCc2cnc3c(N)nc4cc(C)ccc4c3c2)c(C)c1 [SMIP 28, 2-(4-methoxy-2-methylphenethyl)-8-methylbenzo[f][1,7]naphthyridin-5-amine]
[1]
  cytokine induction of IL-1β compared to R-848: significantly greater cytokine induction of IL-1β
  cytokine induction of IL-5 compared to peanut oil-control: Neither administration of SMIP 28 nor R-848, compared to peanut oil-control, resulted in a cytokine induction of IL-5
  cytokines induced compared to peanut oil-control: cytokine induction of IFN-γ, IL-12 p40, IL-1β, IL-6, MCP-1, mKC, and TNF-α
